What was measured:
Test in all cases: cells
Details in all cases: Homo sapiens
[1] = system: KNS-81-FD; type: functional, cell-based;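 also: growth inhibition of KNS-81-FD cells, read out with a cell viability assay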
Description: SANGER: Inhibition of human KNS-81-FD cell growth in a cell viability assay.

[2] = system: EW-24; type: functional, cell-based;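 also: human EW-24 cancer cell line, growth inhibition read out via a cell viability assay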
Description: SANGER: Inhibition of human EW-24 cell growth in a cell viability assay.

[3] = system: KM-H2; type: functional, cell-based;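 also: growth inhibition of KM-H2 cells, read out by a cell viability assay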
Description: SANGER: Inhibition of human KM-H2 cell growth in a cell viability assay.

[4] = system: KURAMOCHI; type: functional, cell-based;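 also: growth inhibition of KURAMOCHI cells, read out with a cell viability assay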
Description: SANGER: Inhibition of human KURAMOCHI cell growth in a cell viability assay.

[5] = system: SW 962; type: functional, cell-based;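 also: growth inhibition of human SW962 cells, read out by a cell viability assay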
Description: SANGER: Inhibition of human SW962 cell growth in a cell viability assay.

[6] = system: MMAC-SF; type: functional, cell-based;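 also: growth inhibition of human MMAC-SF cells, read out with a cell viability assay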
Description: SANGER: Inhibition of human MMAC-SF cell growth in a cell viability assay.

[7] = system: MSTO-211H; type: functional, cell-based
Description: SANGER: Inhibition of human MSTO-211H cell growth in a cell viability assay.

[8] = system: MZ7-mel; type: functional, cell-based;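 also: growth inhibition of human MZ7-mel cells, measured by a cell viability assay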
Description: SANGER: Inhibition of human MZ7-mel cell growth in a cell viability assay.

[9] = system: RS4-11; type: functional, cell-based;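 also: growth inhibition of RS4-11 cells, read out by a cell viability assay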
Description: SANGER: Inhibition of human RS4-11 cell growth in a cell viability assay.

[10] = system: COLO-684; type: functional, cell-based
Description: SANGER: Inhibition of human COLO-684 cell growth in a cell viability assay.

[11] = system: NCI-H720; type: functional, cell-based;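 also: growth inhibition of human NCI-H720 cells determined by a cell viability assay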
Description: SANGER: Inhibition of human NCI-H720 cell growth in a cell viability assay.

[12] = system: BT-474; type: functional, cell-based
Description: SANGER: Inhibition of human BT-474 cell growth in a cell viability assay.

[13] = system: VA-ES-BJ; type: functional, cell-based;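 also: growth inhibition of the VA-ES-BJ cell line, read out by a cell viability assay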
Description: SANGER: Inhibition of human VA-ES-BJ cell growth in a cell viability assay.

[14] = system: SNB-75; type: functional, cell-based;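 also: cell viability assay measuring growth inhibition of human SNB-75 cells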
Description: SANGER: Inhibition of human SNB75 cell growth in a cell viability assay.

[15] = system: KE-37; type: functional, cell-based;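 also: growth inhibition of KE-37 cells, read out with a cell viability assay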
Description: SANGER: Inhibition of human KE-37 cell growth in a cell viability assay.

[16] = system: D-263MG; type: functional, cell-based
Description: SANGER: Inhibition of human D-263MG cell growth in a cell viability assay.

[17] = system: NKM-1; type: functional, cell-based;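 also: growth inhibition of NKM-1 cells, read out with a cell viability assay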
Description: SANGER: Inhibition of human NKM-1 cell growth in a cell viability assay.

[18] = system: NCI-H292; type: functional, cell-based;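 also: growth inhibition of NCI-H292 cells, read out with a cell viability assay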
Description: SANGER: Inhibition of human NCI-H292 cell growth in a cell viability assay.

[19] = system: HuTu80; type: functional, cell-based, HUTU-80;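 also: growth inhibition of HuTu80 human cells, determined with a cell viability readout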
Description: SANGER: Inhibition of human HUTU-80 cell growth in a cell viability assay.

[20] = system: PFSK-1; type: functional, cell-based;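 also: cell viability assay measuring how strongly compounds suppress growth of human PFSK-1 cells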
Description: SANGER: Inhibition of human PFSK-1 cell growth in a cell viability assay.

[21] = system: LB373-MEL-D; type: functional, cell-based;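 also: growth inhibition of the cell line, read out in a cell viability assay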
Description: SANGER: Inhibition of human LB373-MEL-D cell growth in a cell viability assay.

[22] = system: MEG-01; type: functional, cell-based;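 also: growth inhibition of MEG-01 cells, read out by a cell viability assay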
Description: SANGER: Inhibition of human MEG-01 cell growth in a cell viability assay.

[23] = system: SF-126; type: functional, cell-based;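 also: growth inhibition of human SF126 cells, read out with a cell viability assay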
Description: SANGER: Inhibition of human SF126 cell growth in a cell viability assay.

[24] = system: C2BBe1; type: functional, cell-based;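 also: growth inhibition of C2BBe1 cells, read out through a viability assay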
Description: SANGER: Inhibition of human C2BBe1 cell growth in a cell viability assay.

[25] = system: NB5; type: functional, cell-based;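 also: growth inhibition of NB5 cells, read out as cell viability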
Description: SANGER: Inhibition of human NB5 cell growth in a cell viability assay.

[26] = system: IST-MES1; type: functional, cell-based;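 also: growth inhibition of IST-MES1 cells, measured with a cell viability assay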
Description: SANGER: Inhibition of human IST-MES1 cell growth in a cell viability assay.

[27] = system: NCI-H526; type: functional, cell-based;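 also: growth inhibition of the human NCI-H526 cell line, measured by a cell viability assay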
Description: SANGER: Inhibition of human NCI-H526 cell growth in a cell viability assay.

[28] = system: G-401; type: functional, cell-based
Description: SANGER: Inhibition of human G-401 cell growth in a cell viability assay.

[29] = system: IST-MEL1; type: functional, cell-based;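 also: growth inhibition of the cell line, read out with a cell viability assay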
Description: SANGER: Inhibition of human IST-MEL1 cell growth in a cell viability assay.

[30] = system: AM-38; type: functional, cell-based;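 also: growth inhibition of AM-38 cells of human origin, read out by a cell viability assay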
Description: SANGER: Inhibition of human AM-38 cell growth in a cell viability assay.

[31] = system: HO-1-N-1; type: functional, cell-based;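 also: growth inhibition of human HO-1-N-1 cells, read out with a cell viability assay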
Description: SANGER: Inhibition of human HO-1-N-1 cell growth in a cell viability assay.

[32] = system: MV4-11; type: functional, cell-based, MV-4-11;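 also: cell viability readout measuring growth inhibition of human MV-4-11 cells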
Description: SANGER: Inhibition of human MV-4-11 cell growth in a cell viability assay.

[33] = system: DU-4475; type: functional, cell-based
Description: SANGER: Inhibition of human DU-4475 cell growth in a cell viability assay.

[34] = system: DB; type: functional, cell-based
Description: SANGER: Inhibition of human DB cell growth in a cell viability assay.

[35] = system: RH-1; type: functional, cell-based;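 also: growth inhibition of human RH-1 cells, read out with a cell viability assay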
Description: SANGER: Inhibition of human RH-1 cell growth in a cell viability assay.

[36] = system: ES6; type: functional, cell-based;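 also: growth inhibition of human ES6 cells, read out with a cell viability assay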
Description: SANGER: Inhibition of human ES6 cell growth in a cell viability assay.

[37] = system: ATN-1; type: functional, cell-based;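 also: growth inhibition of human ATN-1 cells, read out with a cell viability assay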
Description: SANGER: Inhibition of human ATN-1 cell growth in a cell viability assay.

[38] = system: CTV-1; type: functional, cell-based;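 also: growth inhibition of the cell line, read out with a cell viability assay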
Description: SANGER: Inhibition of human CTV-1 cell growth in a cell viability assay.

[39] = system: SCC-15; type: functional, cell-based;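 also: growth inhibition of SCC-15 cells, read out with a cell viability assay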
Description: SANGER: Inhibition of human SCC-15 cell growth in a cell viability assay.

[40] = system: SW780; type: functional, cell-based;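 also: growth inhibition of the cells, read out with a cell viability assay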
Description: SANGER: Inhibition of human SW780 cell growth in a cell viability assay.

[41] = system: Becker; type: functional, cell-based;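 also: growth inhibition of Becker cells, read out with a cell viability assay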
Description: SANGER: Inhibition of human Becker cell growth in a cell viability assay.

[42] = system: SCC-9; type: functional, cell-based;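 also: Read-out is a cell viability assay, with values giving inhibition of cell growth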
Description: SANGER: Inhibition of human SCC-9 cell growth in a cell viability assay.

[43] = system: SiHa; type: functional, cell-based;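 also: Viability-based readout of growth inhibition in SiHa cells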
Description: SANGER: Inhibition of human SiHa cell growth in a cell viability assay.

[44] = system: GI-ME-N; type: functional, cell-based;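 also: growth inhibition of human GI-ME-N cells, read out with a cell viability assay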
Description: SANGER: Inhibition of human GI-ME-N cell growth in a cell viability assay.

[45] = system: TGBC24TKB; type: functional, cell-based;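 also: growth inhibition of human TGBC24TKB cells, read out with a cell viability assay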
Description: SANGER: Inhibition of human TGBC24TKB cell growth in a cell viability assay.

[46] = system: MS-1; type: functional, cell-based;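 also: growth inhibition of MS-1 cells, read out by cell viability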
Description: SANGER: Inhibition of human MS-1 cell growth in a cell viability assay.

[47] = system: GCIY; type: functional, cell-based;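 also: growth inhibition of the human GCIY cell line, read out by a cell viability assay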
Description: SANGER: Inhibition of human GCIY cell growth in a cell viability assay.

[48] = system: BE-13; type: functional, cell-based;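 also: growth inhibition of human BE-13 cells, measured with a cell viability assay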
Description: SANGER: Inhibition of human BE-13 cell growth in a cell viability assay.

[49] = system: LXF-289 cell line; type: functional, cell-based
Description: SANGER: Inhibition of human LXF-289 cell growth in a cell viability assay.

[50] = system: CAL-33; type: functional, cell-based;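 also: growth inhibition of CAL-33 cells, read out with a cell viability assay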
Description: SANGER: Inhibition of human CAL-33 cell growth in a cell viability assay.

[51] = system: RPMI-8866; type: functional, cell-based
Description: SANGER: Inhibition of human RPMI-8866 cell growth in a cell viability assay.

[52] = system: SF-268; type: functional, cell-based;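 also: growth inhibition of SF-268 cells determined with a cell viability assay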
Description: SANGER: Inhibition of human SF268 cell growth in a cell viability assay.

[53] = system: HC-1; type: functional, cell-based;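 also: growth inhibition of HC-1 cells measured by a cell viability assay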
Description: SANGER: Inhibition of human HC-1 cell growth in a cell viability assay.

[54] = system: NEC8; type: functional, cell-based;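 also: growth inhibition of human NEC8 cells, read out by a cell viability assay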
Description: SANGER: Inhibition of human NEC8 cell growth in a cell viability assay.

[55] = system: HCC 2998; type: functional, cell-based;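 also: growth inhibition of human HCC2998 cells, measured with a cell viability read-out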
Description: SANGER: Inhibition of human HCC2998 cell growth in a cell viability assay.

[56] = system: NCI-H1650; type: functional, cell-based;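 also: growth inhibition of human NCI-H1650 cells measured by a cell viability assay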
Description: SANGER: Inhibition of human NCI-H1650 cell growth in a cell viability assay.

[57] = system: Mo; type: functional, cell-based
Description: SANGER: Inhibition of human Mo-T cell growth in a cell viability assay.

[58] = system: NCI-H1395; type: functional, cell-based;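 also: cell viability assay read-out quantifying reduced proliferation of human NCI-H1395 cells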
Description: SANGER: Inhibition of human NCI-H1395 cell growth in a cell viability assay.

[59] = system: Lu-65; type: functional, cell-based;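 also: growth inhibition of Lu-65 cancer cells, read out by a cell viability assay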
Description: SANGER: Inhibition of human LU-65 cell growth in a cell viability assay.

[60] = system: NB6; type: functional, cell-based
Description: SANGER: Inhibition of human NB6 cell growth in a cell viability assay.

[61] = system: TE-12; type: functional, cell-based
Description: SANGER: Inhibition of human TE-12 cell growth in a cell viability assay.

[62] = system: SK-N-FI; type: functional, cell-based
Description: SANGER: Inhibition of human SK-N-FI cell growth in a cell viability assay.

`CC[C@@]1(O)C(=O)OCc2c1cc1n(c2=O)Cc2cc3ccccc3nc2-1` [CAMPTOTHECIN] gave an IC50 [1] of 19.4 nM, an IC50 [2] of 4.03 nM and an IC50 [3] of 55.7 nM. For the same molecule, the IC50 [4] was > 100 nM, the IC50 [5] was 20.5 nM and the IC50 [6] was 38.4 nM. The IC50 [7] was 8.24 nM, the IC50 [8] was 8.61 nM and the IC50 [9] was 0.902 nM. For the same molecule, the IC50 [10] was 13.8 nM, the IC50 [11] was 44.7 nM and the IC50 [12] was > 100 nM. For the same molecule, the IC50 [13] was 3.47 nM, the IC50 [14] was 17.3 nM and the IC50 [15] was 1.54 nM. The IC50 [16] was 9.11 nM, the IC50 [17] was 0.441 nM and the IC50 [18] was 2.24 nM. The IC50 [19] was 3.38 nM, the IC50 [20] was 26 nM and the IC50 [21] was 91.2 nM. The IC50 [22] was 39.5 nM, the IC50 [23] was 2.84 nM and the IC50 [24] was 2.44 nM. It also gave an IC50 [25] of 1.92 nM, an IC50 [26] of 10.6 nM and an IC50 [27] of 1.03 nM. It also gave an IC50 [28] of 19.2 nM, an IC50 [29] of 3.81 nM and an IC50 [30] of 4.41 nM. For the same molecule, the IC50 [31] was 0.838 nM, the IC50 [32] was 0.706 nM and the IC50 [33] was 3.07 nM. The IC50 [34] was 1.16 nM, the IC50 [35] was 3.86 nM and the IC50 [36] was 88 nM. For the same molecule, the IC50 [37] was 2.04 nM, the IC50 [38] was 0.905 nM and the IC50 [39] was 18.6 nM. The IC50 [40] was 25.8 nM, the IC50 [41] was 23.3 nM and the IC50 [42] was 33.2 nM. For the same molecule, the IC50 [43] was 86.9 nM, the IC50 [44] was 33.9 nM and the IC50 [45] was 53.7 nM. It also gave an IC50 [46] of 2.77 nM, an IC50 [47] of 66.1 nM and an IC50 [48] of 4.56 nM. The IC50 [49] was 7.05 nM, the IC50 [50] was 6 nM and the IC50 [51] was 1.72 nM. For the same molecule, the IC50 [52] was 3.38 nM, the IC50 [53] was 3.34 nM and the IC50 [54] was 3.11 nM.

With `CC(=O)c1c(C)c2cnc(Nc3ccc(N4CCNCC4)cn3)nc2n(C2CCCC2)c1=O` [PALBOCICLIB] the IC50 [55] was > 4000 nM, the IC50 [1] was > 4000 nM and the IC50 [3] was 696 nM. For the same molecule, the IC50 [4] was > 4000 nM, the IC50 [5] was 809 nM and the IC50 [7] was 1700 nM. For the same molecule, the IC50 [8] was > 4000 nM, the IC50 [9] was 505 nM and the IC50 [10] was > 4000 nM. The IC50 [11] was > 4000 nM, the IC50 [56] was > 4000 nM and the IC50 [12] was > 4000 nM. For the same molecule, the IC50 [13] was 732 nM, the IC50 [14] was > 4000 nM and the IC50 [15] was 2090 nM. The IC50 [16] was 717 nM, the IC50 [57] was > 4000 nM and the IC50 [17] was 412 nM. For the same molecule, the IC50 [18] was 2850 nM, the IC50 [20] was > 4000 nM and the IC50 [58] was > 4000 nM. The IC50 [22] was > 4000 nM, the IC50 [23] was > 4000 nM and the IC50 [59] was > 4000 nM. For the same molecule, the IC50 [24] was > 4000 nM, the IC50 [25] was > 4000 nM and the IC50 [26] was 3830 nM. For the same molecule, the IC50 [27] was > 4000 nM, the IC50 [28] was 1920 nM and the IC50 [29] was > 4000 nM. The IC50 [30] was > 4000 nM, the IC50 [31] was 963 nM and the IC50 [32] was 514 nM. For the same molecule, the IC50 [33] was > 4000 nM, the IC50 [34] was 1070 nM and the IC50 [35] was > 4000 nM. For the same molecule, the IC50 [36] was > 4000 nM, the IC50 [37] was > 4000 nM and the IC50 [38] was 2530 nM. The IC50 [60] was 2400 nM, the IC50 [39] was > 4000 nM and the IC50 [40] was 1960 nM. For the same molecule, the IC50 [41] was 2960 nM, the IC50 [42] was > 4000 nM and the IC50 [43] was > 4000 nM. For the same molecule, the IC50 [44] was > 4000 nM, the IC50 [45] was > 4000 nM and the IC50 [46] was > 4000 nM. The IC50 [47] was > 4000 nM, the IC50 [48] was 444 nM and the IC50 [49] was > 4000 nM. For the same molecule, the IC50 [50] was > 4000 nM, the IC50 [51] was 1590 nM and the IC50 [61] was > 4000 nM. For the same molecule, the IC50 [52] was 2230 nM, the IC50 [54] was > 4000 nM and the IC50 [62] was > 4000 nM.
